Results: patent US20230146455A1, “TREATMENT OF INFLAMMATORY DISEASES WITH PEPTIDES AND PHARMACEUTICAL COMPOSITIONS” (Yuyu Pharma, Inc., priority 2020, published 2023)
≈ marks a conversion by molar mass, not a printed value. Entries after “also recorded” stand apart in the source; their conditions may differ. Read-outs that look alike come from different tables or passages of the source. Where a SMILES comes first, the peptide text is derived from it. [ ]: non-standard residue; d: D form. The star is where a group is joined. Pyrrolidin1yl(2S-Ac) = CC(=O)[C@@H]1CCCN1*; Hyp = O=C(O)[C@@H]1C[C@@H](O)CN1; NH(CH2)2O(CH2)2NH2 = NCCOCCN*; Pyrrolidide = C1CCN(*)C1; X1 = CCN(C(C)C)*; NMeEt = CCN(C)*

Key:
[1] = Apparent permeability, 21 day cultured Caco-2 cell monolayer, bi-directional (Example 7); assay type: in vitro ADME; conditions: human; for recovery at 120 min, 2 μM: Caco-2, 2 μM
Description: (§1) 10 mM stock solution of test compound was prepared in DMSO. 10 mM stock was diluted with 100% DMSO to prepare 0.2 mM, 0.2 mM stock was diluted with HBSS buffer to a final concentration of 2 μM.
(§2) Add 250 μL of DMEM to the basal compartment of 96 well multi-screen Caco-2 plates and seed 12000 cells/well (0.16×10^6 cells/ml) in all the apical wells required and 2 wells with only media as blank without cells. Place the Caco-2 plate in CO2 incubator at 37° C. for proliferation of cells.
(§3) The utilized media was replenished every alternate day by fresh medium. On 21st day, utilized medium was removed and washed twice with HBSS Buffer and incubated with HBSS buffer 30 min in incubator and initiated the assay.
(§4) 75 μL of test compound was added to apical wells and 250 μL of HBSS buffer with 1% DMSO was added to basal wells. Samples were collected at 120 min and processed as stated below.
(§5) 250 μL of test compound was added to basal wells and 75 μL of HBSS buffer with 1% DMSO was added to apical wells. Samples were collected at 120 min and processed as stated below.
(§6) Single point calibration curve in HBSS buffer was used. 100 μL of supernatant was diluted with 200 μL of water and submitted for LC-MS/MS analysis.
(§7) Efflux ratio=Papp of basal to apical samples/Papp of apical to basal samples
(§8) Recovery: {(dQ of Apical+dQ of Basal)/Standard dQ}*100

Caco-2 cells monolayer = test: as above; assay type: in vitro ADME
Description: as §1, §2, §3, §4, §5, §6, §7, §8

[2] = Solubility (in water; in saline); assay type: physicochemical; conditions: for solubility: water
[3] = system: IL-6 cytokine release in poly I:C stimulated primary human corneal epithelial cells; test: Soluble IL-6 cytokine release in poly I:C stimulated primary human corneal epithelial cells by ELISA (Example 2); assay type: cell-based; conditions: 25 μg/mL poly I:C, 24 hours; for Poly I:C induced IL-6 cytokine release (in words): 30, 10, 1, 0.1, 0.01, 0.001 μM
Description: Assay protocol as shown below was used to determine the significant effect of test compounds. The data was statistically analyzed by one-way ANOVA with a Bonferroni post test comparing all the columns. The significance was represented by the p value.
Selected YDE peptides (YDE-093, -096, -100, -101, -102, -103, -104, -105, -106 and -107) were evaluated by assessing the soluble IL-6 cytokine release in poly I:C stimulated primary human corneal epithelial cells by ELISA (Biolegend, 430504).
Specifically, primary corneal epithelial cells (ATCC, ATCC PCS-700-010) were seeded on a 6-well culture plate containing the Corneal Epithelial Cell Basal Medium (ATCC, ATCC PCS-700-030) in the Corneal Epithelial Cell Growth Kit (ATCC, ATCC PCS-700-040) in an amount of 1.2×10^5 cells per well, which was then cultured for 24 hours under the conditions of 37° C. and 5% CO2. Then, cells were washed with 1×PBS and replaced with serum free medium which was then cultured for 2 hours under the conditions of 37° C. and 5% CO2.
After 2 hours, cells were treated with compounds at 6 differential concentrations (Hinokitiol/YDE peptides at 30, 10, 1, 0.1, 0.01, and 0.001 μM) with the DMSO final 0.5% and then cultured for 1 hour under the conditions of 37° C. and 5% CO2.
After 1 hour, cells were further treated with 25 μg/mL of poly I:C and cultured for 24 hours under the conditions of 37° C. and 5% CO2.
Following incubation, the supernatant was collected for IL-6 levels was assessed by Sandwich ELISA (Enzyme-linked immunosorbent assay) following manufacturer's instructions. The data was statistically analyzed by one-way ANOVA with a Bonferroni post-test comparing all the columns. The significance was represented by the p value.

[4] = system: IL-6 cytokine release in poly I:C stimulated primary human corneal epithelial cells; test: Soluble IL-6 cytokine release in poly I:C stimulated primary human corneal epithelial cells by ELISA (Example 6); assay type: cell-based
Source text: To determine the effect of compound by assessing the soluble IL-6 cytokine release in poly I:C stimulated primary human corneal epithelial cells by ELISA. • Test System: Primary Human Corneal Epithelial cells • Assay Format: 96-well plate format • Method of Detection: Enzyme-linked immunosorbent assay • Assay Controls: Hinokitiol Assay protocol as shown below was used to determine the significant effect of test compounds. The data was statistically analyzed by one-way ANOVA with a Bonferroni post test comparing all the columns. The significance was represented by the p value.

Structure (SMILES)	Solubility in Water [2] [mg/mL]	Poly I:C induced IL-6 cytokine release (in words) [3]	solubility [2] [mg/mL]	tested concentrations with significant attenuation of IL-6 cytokine release [3]	other results
CC(C)NCC(O)COc1cccc2ccccc12 (centres unmarked) [Propranolol, reference compound]	–	–	–	–	recovery at 120 min, 2 μM ([1]; 120 minutes, read-out: A to B % Recovery): 80.1%; recovery at 120 min, 2 μM ([1]; 120 minutes, read-out: B to A % Recovery): 90.3%; Papp A→B at 120 min, 2 μM ([1]; Caco-2, 2 μM, 120 minutes, average values, read-out: Papp Apical to Basal): 238 nm/s; Papp B→A at 120 min, 2 μM ([1]; Caco-2, 2 μM, 120 minutes, average values, read-out: Papp Basal to Apical): 371 nm/s; efflux ratio at 120 min, 2 μM ([1]; Caco-2, Papp B-A / Papp A-B): 1.56; Classification (Caco-2 Permeability) (Caco-2 cells monolayer): HIGH
CC(C)C[C@H](NC(=O)CNC(=O)[C@H](CC(C)C)NC(=O)[C@H](CCC(N)=O)NC(=O)CNC(=O)[C@@H]1C[C@@H](O)CN1)C(=O)N[C@@H](C)C(=O)NCC(=O)N1CCC[C@H]1C(=O)N[C@@H](CCCCN)C(=O)NCCOCCN [YDE-093] (H-[Hyp]GQLGLAGPK-{NH(CH2)2O(CH2)2NH2})	10.0 (≈ 9.62 mM)	attenuation of IL-6 release; also recorded: attenuate Poly I:C induced of IL-6 cytokine release in a dose dependent manner	–	–	Poly I:C induced IL-6 cytokine release (in words) [4]: attenuate Poly I:C induced of IL-6 cytokine release in a dose dependent manner; tested concentrations with significant attenuation of IL-6 cytokine release [4]: 30 μM, 10 μM, 1 μM and 0.1 μM
CC(C)C[C@H](NC(=O)CNC(=O)[C@H](CC(=O)O)NC(=O)[C@H](CCC(N)=O)NC(=O)CNC(=O)[C@@H]1C[C@@H](O)CN1)C(=O)N[C@@H](C)C(=O)O [YDE-094, O*GQDGLA] (H-[Hyp]GQDGLA-OH)	–	–	10 (≈ 14.9 mM)	–	–
CC(C)C[C@H](NC(=O)CNC(=O)[C@H](CC(C)C)NC(=O)[C@H](CCC(N)=O)NC(=O)CNC(=O)[C@@H]1C[C@@H](O)CN1)C(=O)N[C@@H](C)C(=O)NCC(=O)N1CCC[C@H]1C(=O)N[C@@H](CCCCN)C(=O)NCCOCCN [YDE-096] (H-[Hyp]GQLGLAGPK-{NH(CH2)2O(CH2)2NH2})	–	attenuation of IL-6 release; also recorded: attenuate Poly I:C induced of IL-6 cytokine release in a dose dependent manner	10 (≈ 9.62 mM)	–	Poly I:C induced IL-6 cytokine release (in words) [4]: attenuate Poly I:C induced of IL-6 cytokine release in a dose dependent manner; tested concentrations with significant attenuation of IL-6 cytokine release [4]: 30 μM, 10 μM, 1 μM and 0.1 μM
CC(=O)[C@@H]1CCCN1C(=O)CNC(=O)[C@H](C)NC(=O)[C@H](CC(C)C)NC(=O)CNC(=O)[C@H](CC(C)C)NC(=O)[C@H](CCC(N)=O)NC(=O)CNC(=O)[C@@H]1C[C@@H](O)CN1 [YDE-100] (H-[Hyp]GQLGLAG-{Pyrrolidin1yl(2S-Ac)})	10.0 (≈ 12.2 mM)	attenuation of IL-6 release	–	30 μM, and 10 μM	Poly I:C induced IL-6 cytokine release (in words) ([3]; listed as YDE100): attenuate Poly I:C induced IL-6 cytokine release in a dose dependent manner
CC(C)C[C@H](NC(=O)CNC(=O)[C@H](CC(C)C)NC(=O)[C@H](CCC(N)=O)NC(=O)CNC(=O)[C@@H]1C[C@@H](O)CN1)C(=O)N[C@@H](C)C(=O)NCC(=O)N1CCC[C@H]1C(=O)N(C)C [YDE-101] (H-[Hyp]GQLGLAGP-NMe2)	10.0 (≈ 11.7 mM)	attenuation of IL-6 release	–	30 μM, 10 μM, and 1 μM	Poly I:C induced IL-6 cytokine release (in words) ([3]; listed as YDE101): attenuate Poly I:C induced IL-6 cytokine release in a dose dependent manner
CCNC(=O)[C@@H]1CCCN1C(=O)CNC(=O)[C@H](C)NC(=O)[C@H](CC(C)C)NC(=O)CNC(=O)[C@H](CC(C)C)NC(=O)[C@H](CCC(N)=O)NC(=O)CNC(=O)[C@@H]1C[C@@H](O)CN1 [YDE-102] (H-[Hyp]GQLGLAGP-NHEt)	10.0 (≈ 11.7 mM)	attenuation of IL-6 release	–	30 μM, 10 μM, and 1 μM	Poly I:C induced IL-6 cytokine release (in words) ([3]; listed as YDE102): attenuate Poly I:C induced IL-6 cytokine release in a dose dependent manner
CCN(C)C(=O)[C@@H]1CCCN1C(=O)CNC(=O)[C@H](C)NC(=O)[C@H](CC(C)C)NC(=O)CNC(=O)[C@H](CC(C)C)NC(=O)[C@H](CCC(N)=O)NC(=O)CNC(=O)[C@@H]1C[C@@H](O)CN1 [YDE-103] (H-[Hyp]GQLGLAGP-NMeEt)	–	attenuation of IL-6 release	–	–	tested concentrations with significant attenuation of IL-6 cytokine release ([3]; listed as YDE103): 30 μM, 10 μM, 1 μM and 0.1 μM; Poly I:C induced IL-6 cytokine release (in words) ([3]; listed as YDE103): attenuate Poly I:C induced IL-6 cytokine release in a dose dependent manner
CCN(C)C(=O)[C@@H]1CCCN1C(=O)CNC(=O)[C@H](C)NC(=O)[C@H](CC(C)C)NC(=O)CNC(=O)[C@H](CC(C)C)NC(=O)[C@H](CCC(N)=O)NC(=O)CNC(=O)[C@@H]1C[C@@H](O)CN1 [YDE-105] (H-[Hyp]GQLGLAGP-NMeEt)	–	–	10 (≈ 11.5 mM)	–	tested concentrations with significant attenuation of IL-6 cytokine release ([3]; listed as YDE105): 30 μM, 10 μM, and 1 μM; Poly I:C induced IL-6 cytokine release (in words) ([3]; listed as YDE105): attenuate Poly I:C induced IL-6 cytokine release in a dose dependent manner
CC(C)C[C@H](NC(=O)CNC(=O)[C@H](CC(C)C)NC(=O)[C@H](CCC(N)=O)NC(=O)CNC(=O)[C@@H]1C[C@@H](O)CN1)C(=O)N[C@@H](C)C(=O)NCC(=O)N1CCC[C@H]1C(=O)N1CCCC1 [YDE-106] (H-[Hyp]GQLGLAGP-Pyrrolidide)	10.0 (≈ 11.4 mM)	attenuation of IL-6 release	–	30 μM, 10 μM, and 1 μM	Poly I:C induced IL-6 cytokine release (in words) ([3]; listed as YDE106): attenuate Poly I:C induced IL-6 cytokine release in a dose dependent manner
CCN(C(=O)[C@@H]1CCCN1C(=O)CNC(=O)[C@H](C)NC(=O)[C@H](CC(C)C)NC(=O)CNC(=O)[C@H](CC(C)C)NC(=O)[C@H](CCC(N)=O)NC(=O)CNC(=O)[C@@H]1C[C@@H](O)CN1)C(C)C [YDE-107] (H-[Hyp]GQLGLAGP-X1)	–	attenuation of IL-6 release	10 (≈ 11.2 mM)	30 μM, 10 μM, and 1 μM	Poly I:C induced IL-6 cytokine release (in words) ([3]; listed as YDE107): attenuate Poly I:C induced IL-6 cytokine release in a dose dependent manner
